Test results as given in US20230399312A1, “SUBSTITUTED PYRIMIDINES AND METHODS OF USE” (THERAVANCE BIOPHARMA R&D IP, LLC, priority 2020, published 2023).

Legend:
[1] = target: T1, recombinant human ALK5 (TGF-βR1) protein (Homo sapiens, UniProt P36897); assay: Biochemical ALK5 (TGF-βR1) assay to measure pKi (LANCE Ultra ULight kinase assay); conditions: apparent pKi, converted from pIC50 by Cheng-Prusoff
T1 construct: purchased Life Technologies PR9075A
T1 sequence (P36897 34-503): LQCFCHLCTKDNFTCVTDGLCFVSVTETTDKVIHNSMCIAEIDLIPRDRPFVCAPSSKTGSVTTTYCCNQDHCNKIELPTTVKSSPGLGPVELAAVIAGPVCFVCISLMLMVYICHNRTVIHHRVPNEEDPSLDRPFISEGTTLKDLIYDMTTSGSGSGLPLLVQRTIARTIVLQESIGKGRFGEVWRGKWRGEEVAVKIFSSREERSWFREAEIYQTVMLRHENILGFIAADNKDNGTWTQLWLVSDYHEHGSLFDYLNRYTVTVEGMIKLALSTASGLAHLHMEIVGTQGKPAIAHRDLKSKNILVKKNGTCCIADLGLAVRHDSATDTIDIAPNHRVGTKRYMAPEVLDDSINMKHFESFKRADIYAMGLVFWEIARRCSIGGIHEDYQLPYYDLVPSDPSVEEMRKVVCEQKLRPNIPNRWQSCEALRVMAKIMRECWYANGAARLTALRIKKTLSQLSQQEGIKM
Summary of the method: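 Dose-response series of each compound were preincubated with the kinase for 60 minutes at room temperature. Phosphorylation proceeded for 60 minutes at 37 °C after ATP addition, was quenched with EDTA, and was detected with a europium anti-phospho-Thr1342 antibody by TR-FRET; pKi was calculated from pIC50.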

[2] = system: TGF-β-stimulated SMAD3 phosphorylation in BEAS-2B cells; assay: Cellular ALK5 potency assay, inhibition of TGF-β stimulated pSMAD3 formation in BEAS-2B cells; assay type: cell-based; conditions: Homo sapiens, pSMAD3, TGF-β 10 ng/mL, read-out: BEAS2B pIC50 (converted)
Summary of the method: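 Human lung epithelial BEAS-2B cells were preincubated 1 h at 37 °C with compound in HBSS/HEPES/1% BSA, then stimulated 30 min with 10 ng/mL TGF-β. pSMAD3 in lysates was quantified by AlphaLISA relative to untreated stimulated cells; reported as pIC50.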

| SMILES | Ki [1] [nM] | IC50 [2] [nM] |
| --- | --- | --- |
| Cc1cccc(-c2nccc(Nc3ccnc(Nc4cccc(NC(=O)C5CCN(C)CC5)c4)n3)n2)n1 [Compound 145, 1-methyl-N-[3-[[4-[[2-(6-methyl-2-pyridyl)pyrimidin-4-yl]amino]pyrimidin-2-yl]amino]phenyl]piperidine-4-carboxamide] | 0.0398 to 0.316 | 25.1 to 158 |
| Cc1cccc(-c2nccc(Nc3ccnc(Nc4ccc(CCO)cc4)n3)n2)n1 [Compound 146, 2-[4-[[4-[[2-(6-methyl-2-pyridyl)pyrimidin-4-yl]amino]pyrimidin-2-yl]amino]phenyl]ethanol] | 0.398 to 3.16 | 25.1 to 158 |
| Cc1cccc(-c2nccc(Nc3ccnc(Nc4ccc(C(=O)OC5CCNCC5)cc4)n3)n2)n1 [Compound 147, 4-piperidyl 4-[[4-[[2-(6-methyl-2-pyridyl)pyrimidin-4-yl]amino]pyrimidin-2-yl]amino]benzoate] | 0.0398 to 0.316 | 25.1 to 158 |
| Cc1cccc(-c2nccc(Nc3ccnc(Nc4nc(C(=O)OC5CCNCC5)cs4)n3)n2)n1 [Compound 148, piperidin-4-yl 2-((4-((2-(6-methylpyridin-2-yl)pyrimidin-4-yl)amino)pyrimidin-2-yl)amino)thiazole-4-carboxylate] | 0.398 to 3.16 | 25.1 to 158 |
| Cc1cccc(-c2nccc(Nc3ccnc(Nc4ccc(N5CCN(C(=O)CSC6CCOC6=O)CC5)cc4)n3)n2)n1 (centres unmarked) [Compound 149, 3-[2-[4-[4-[[4-[[2-(6-methyl-2-pyridyl)pyrimidin-4-yl]amino]pyrimidin-2-yl]amino]phenyl]piperazin-1-yl]-2-oxo-ethyl] sulfanyltetrahydrofuran-2-one] | 0.0398 to 0.316 | 25.1 to 158 |
| Cc1cccc(-c2nccc(Nc3ccnc(Nc4ccc(NC(=O)C5CCN(C)CC5)cc4)n3)n2)n1 [Compound 150, 1-methyl-N-[4-[[4-[[2-(6-methyl-2-pyridyl)pyrimidin-4-yl]amino]pyrimidin-2-yl]amino]phenyl]piperidine-4-carboxamide] | 0.0398 to 0.316 | 25.1 to 158 |
| Cc1cccc(-c2nccc(Nc3ccnc(Nc4ccc(C5=CCC(N)CC5)cc4)n3)n2)n1 (centres unmarked) [Compound 151, N2-[4-(4-aminocyclohexen-1-yl)phenyl]-N4-[2-(6-methyl-2-pyridyl)pyrimidin-4-yl]pyrimidine-2,4-diamine] | 0.0398 to 0.316 | 25.1 to 158 |
| Cc1cccc(-c2nccc(Nc3ccnc(Nc4ccc(CN5CC(C(=O)O[C@@H]6CCNC6)C5)cc4)n3)n2)n1 [Compound 152, [(3R)-pyrrolidin-3-yl] 1-[[4-[[4-[[2-(6-methyl-2-pyridyl)pyrimidin-4-yl]amino]pyrimidin-2-yl]amino]phenyl]methyl] azetidine-3-carboxylate] | 0.0398 to 0.316 | 25.1 to 158 |
| Cc1cccc(-c2nccc(Nc3ccnc(Nc4ccc(N5CCN(C)CC5)cc4)n3)n2)n1 [Compound 153, N2-[4-(4-methylpiperazin-1-yl)phenyl]-N4-[2-(6-methyl-2-pyridyl)pyrimidin-4-yl]pyrimidine-2,4-diamine] | ≤ 0.0316 | 25.1 to 158 |
| Cc1cccc(-c2nccc(Nc3ccnc(Nc4cccc(NC(=O)C5CNC5)c4)n3)n2)n1 [Compound 154, N-[3-[[4-[[2-(6-methyl-2-pyridyl)pyrimidin-4-yl]amino]pyrimidin-2-yl]amino]phenyl]azetidine-3-carboxamide] | 0.0398 to 0.316 | 25.1 to 158 |
| Cc1cccc(-c2nccc(Nc3ccnc(Nc4nc(CN5CCC[C@@H](C(=O)OCC6CNC6)C5)cs4)n3)n2)n1 [Compound 155, azetidin-3-ylmethyl (3R)-1-[[2-[[4-[[2-(6-methyl-2-pyridyl)pyrimidin-4-yl]amino]pyrimidin-2-yl]amino]thiazol-4-yl]methyl]piperidine-3-carboxylate] | 0.398 to 3.16 | 200 to 1260 |
| CCOC(=O)Cc1cc(Nc2nccc(Nc3ccnc(-c4cccc(C)n4)n3)n2)ccc1N1CCNCC1 [Compound 156, ethyl 2-[5-[[4-[[2-(6-methyl-2-pyridyl)pyrimidin-4-yl]amino]pyrimidin-2-yl]amino]-2-piperazin-1-yl-phenyl]acetate] | 0.0398 to 0.316 | 25.1 to 158 |
| Cc1cccc(-c2nccc(Nc3ccnc(Nc4ccc(NCCN5CCNCC5)cc4)n3)n2)n1 [Compound 157, N4-[2-(6-methyl-2-pyridyl)pyrimidin-4-yl]-N2-[4-(2-piperazin-1-ylethylamino)phenyl]pyrimidine-2,4-diamine] | 0.0398 to 0.316 | 200 to 1260 |
| Cc1cccc(-c2nccc(Nc3ccnc(Nc4ccc(NC(=O)C5CCNCC5)c(Cl)c4)n3)n2)n1 [Compound 158, N-[2-chloro-4-[[4-[[2-(6-methyl-2-pyridyl)pyrimidin-4-yl]amino]pyrimidin-2-yl]amino]phenyl]piperidine-4-carboxamide] | 0.0398 to 0.316 | 25.1 to 158 |
| Cc1cccc(-c2nccc(Nc3ccnc(Nc4ccc(N5CCNCC5CC(=O)OC5CNC5)cc4)n3)n2)n1 (centres unmarked) [Compound 159, azetidin-3-yl 2-[1-[4-[[4-[[2-(6-methyl-2-pyridyl)pyrimidin-4-yl]amino]pyrimidin-2-yl]amino]phenyl]piperazin-2-yl]acetate] | 0.0398 to 0.316 | 200 to 1260 |
| Cc1cccc(-c2nccc(Nc3ccnc(Nc4ccc5c(c4)CCNCC5)n3)n2)n1 [Compound 160, N4-[2-(6-methyl-2-pyridyl)pyrimidin-4-yl]-N2-(2,3,4,5-tetrahydro-1H-3-benzazepin-7-yl)pyrimidine-2,4-diamine] | 0.0398 to 0.316 | 25.1 to 158 |
| Cc1cccc(-c2nccc(Nc3ccnc(Nc4ccc(CN5CCC(C(=O)O[C@H]6CCN(C)C6)C5)cc4)n3)n2)n1 (stereo partly drawn) [Compound 161, [(3S)-1-methylpyrrolidin-3-yl] 1-[[4-[[4-[[2-(6-methyl-2-pyridyl)pyrimidin-4-yl]amino]pyrimidin-2-yl]amino]phenyl]methyl] pyrrolidine-3-carboxylate] | 0.0398 to 0.316 | ≤ 20 |
| Cc1cccc(-c2nccc(Nc3ccnc(Nc4ccc(NS(=O)(=O)c5ccc(C(N)=O)cc5)cc4)n3)n2)n1 [Compound 162, 4-[[4-[[4-[[2-(6-methyl-2-pyridyl)pyrimidin-4-yl]amino]pyrimidin-2-yl]amino]phenyl]sulfamoyl] benzamide] | 0.398 to 3.16 | 200 to 1260 |
| Cc1cccc(-c2nccc(Nc3ccnc(Nc4ccc(CN5CC6(CNC6)C5)cc4)n3)n2)n1 [Compound 163, N2-[4-(2,6-diazaspiro[3.3]heptan-2-ylmethyl)phenyl]-N4-[2-(6-methyl-2-pyridyl)pyrimidin-4-yl]pyrimidine-2,4-diamine] | 0.0398 to 0.316 | 25.1 to 158 |
| Cc1cccc(-c2nccc(Nc3ccnc(Nc4cccc(NC(=O)C5(CO)CNC5)c4)n3)n2)n1 [Compound 164, 3-(hydroxymethyl)-N-[3-[[4-[[2-(6-methyl-2-pyridyl)pyrimidin-4-yl]amino]pyrimidin-2-yl]amino]phenyl]azetidine-3-carboxamide] | 0.0398 to 0.316 | 25.1 to 158 |
| Fc1ccc(Cl)cc1-c1nccc(Nc2ccnc(Nc3ccc(CN4CCOCC4)cc3)n2)n1 [Compound 165, N4-[2-(5-chloro-2-fluoro-phenyl)pyrimidin-4-yl]-N2-[4-(morpholinomethyl)phenyl] pyrimidine-2,4-diamine] | 3.98 to 31.6 | 25.1 to 158 |
| Cc1ccc(O)cc1-c1nccc(Nc2ccnc(Nc3ccc(N4CCOCC4)cc3)n2)n1 [Compound 166, 4-methyl-3-[4-[[2-(4-morpholinoanilino)pyrimidin-4-yl]amino]pyrimidin-2-yl]phenol] | 3.98 to 31.6 | 25.1 to 158 |
